Converted amounts (≈) assume the structure as drawn. Where two headings read alike, the source gives them in different places.
Assays:
[1] = system: Escherichia coli L47; assay: Broth microdilution antimicrobial assay, E. coli; assay type: cell-based; conditions: E. coli L47, 18 h, 35° C.; for MIC: Escherichia coli, read-out: MIC (Minimal Inhibitory Concentration)
Text: (§1) As known, S. lividans TK24 could potentially produce actinorhodin (ACT), undecylprodigiosin (UDP), and calcium-dependent antibiotic (CDA), especially when grown under fermentation conditions. Broth microdilution assay, standardized by the Clinical and Laboratory Standards Institute (CLSI) was then used to evaluate antibiotic presence in samples deriving from enzyme preparations obtained by the method of the invention. Antimicrobial activity has been tested against test microorganisms (test-mo), known to not show any antibiotic resistance: Staphylococcus aureus ATCC6538 (representative of Gram+); Escherichia coli L47 (Lepetit collection; representative of Gram-); Candida albicans L145 (Lepetit collection; representative of Yeast).
(§2) A two-fold serial dilution of the samples to be tested was performed in sterile 96-well microplates, then inoculated with the test-mo in their respective medium (100 μl/well final volume); each determination was carried out in triplicate. The inoculated microplates were then incubated for 18, 20 and 24 h for E. coli, S. aureus and C. albicans, respectively, at 35° C. Antimicrobial activity of samples of unknown “antimicrobial” concentration was measured as endpoint, that is the highest dilution that inhibits the test strain growth; it was determined by visual examination of the microplates with the aid of a magnifying mirror.

[2] = system: Staphylococcus aureus ATCC6538; assay: Broth microdilution antimicrobial assay, S. aureus; assay type: cell-based; conditions: S. aureus ATCC6538, 20 h, 35° C.; for MIC: Staphylococcus aureus, read-out: MIC (Minimal Inhibitory Concentration)
Text: as §1, §2

[3] = system: Candida albicans L145; assay: Broth microdilution antimicrobial assay, C. albicans; assay type: cell-based; conditions: for MIC: Candida albicans, L145, read-out: MIC (Minimal Inhibitory Concentration)
Text: as §1, §2

[4] = Activity of culture supernatant toward sucAAPF-AMC at various pH; assay type: biochemical
Description: (§3) FIG. 1. Activity of Actinoallomurus A8 culture supernatant fraction containing the native E40. A: relative activity toward the substrate sucAlaAlaProPhe-AMC (sucAAPF-AMC) at various pH values (the optimum —100% activity— is at pH 5). B: Gliadin digestion after 2 hours of incubation at 37° C., pH 3. Gel stained with Coomassie R250 brilliant blue; Lane 1: gliadin alone, lane 2: gliadin+E40-containing supernatant fraction.
FIG. 3. Recombinant E40 (SEQ ID NO: 2) obtained by S. lividans TK24/p1J86/e40 submerged fermentation, at flask scale (panels A-C) or in a 15 L bioreactor, followed by purification (panels D-E). A: activity toward the substrate sucAAPF-AMC at pH 5 of supernatant samples taken at different fermentation times (♦72, ▴96, ●168, ▪192 fermentation hours) from the producing S. lividans TK24/p1J86/E40 (E40, continuous line) and absence of activity of supernatant samples taken from the pIJ86-empty control strain (ctr, dashed lines). Activity is shown as relative fluorescent units (rfu, Y axis) produced in time (X axis). […] D: profile of an enzyme preparation comprising recombinant E40 purified from the 15 L fermentation; lane 1: final enzyme preparation comprising recombinant E40 stained with Coomassie (the arrow indicates recombinant E40), lane 2: zymography as in C, lane 3: band of gelatin hydrolysis after 2 hours of digestion at 37° C. and pH 5, visualized after Coomassie staining of the gelatin substrate. E: relative activity (%) of recombinant E40 in the purified enzyme preparation at different pH values (from 2 to 8), evaluated with the substrate suc-Ala-Ala-Pro-Phe-pNA.
As well as native E40, recombinant E40 was active in the pH range 3-6, with an optimum at pH 5 (FIG. 3, panel B).

[5] = system: gliadin; assay: Gliadin digestion by native E40 fraction (SDS-PAGE); assay type: biochemical; conditions: 2 hours, 37° C., pH 3
Description: as §3
Native E40 of sequence SEQ ID NO: 3 was purified from the supernatant fraction of an Actinoallomurus A8 culture isolated from soil (native E40) as described in WO2013083338.

Q: Which “MIC (Minimal Inhibitory Concentration)” value [1] does the source give for `C[C@@H]1[C@H](O)[C@@H](C)/C=C/C=C/C=C/C=C/C=C/C=C/C=C/[C@H](O[C@@H]2O[C@H](C)[C@@H](O)[C@H](N)[C@@H]2O)C[C@@H]2O[C@](O)(C[C@@H](O)C[C@@H](O)[C@H](O)CC[C@@H](O)C[C@@H](O)CC(=O)O[C@H]1C)C[C@H](O)[C@H]2C(=O)O` [Amphotericin B, amphotericin B] here?
A: >128 µg/mL

Q: And the “MIC (Minimal Inhibitory Concentration)” value [2]?
A: >128 µg/mL

Q: And the “MIC (Minimal Inhibitory Concentration)” value ([3]; C. albicans L14, 24 h, 35° C.)?
A: 0.5 µg/mL (≈ 0.541 µM)

Q: What does the source list for `CCCCCCCCCC(=O)N[C@@H](Cc1c[nH]c2ccccc12)C(=O)N[C@H](CC(N)=O)C(=O)N[C@@H](CC(=O)O)C(=O)N[C@@H]1C(=O)NCC(=O)N[C@@H](CCCN)C(=O)N[C@@H](CC(=O)O)C(=O)N[C@H](C)C(=O)N[C@@H](CC(=O)O)C(=O)NCC(=O)N[C@H](CO)C(=O)N[C@@H]([C@H](C)CC(=O)O)C(=O)N[C@@H](CC(=O)c2ccccc2N)C(=O)O[C@@H]1C` [Daptomycin, daptomycin]?
A: MIC [1]: > 128 µg/mL; MIC [2]: 0.5 µg/mL (≈ 0.309 µM); MIC ([3]; C. albicans L14, 24 h, 35° C.): > 128 µg/mL

Q: With `CN[C@@H]1[C@@H](O[C@H]2O[C@H](CO)[C@@H](N)[C@H](O)[C@H]2O)OC2C[C@@H](N)[C@@H](O[C@H]3[C@H](O)[C@@H](O)[C@H](N)C[C@@H]3N)OC2[C@@H]1O` (stereo partly shown) [Apramycin] as the molecule, how does the MIC [1] read?
A: 8 µg/mL (≈ 14.8 µM)

Q: And the MIC [2]?
A: 8 µg/mL (≈ 14.8 µM)

Q: And the MIC ([3]; C. albicans L14, 24 h, 35° C.)?
A: > 128 µg/mL

Q: With `c1c[nH]cn1` [Imidazole, imidazole] as the molecule, how does the MIC ([3]; C. albicans L14) read?
A: 3.9 mM

B1: Native E40: E40 of SEQ ID NO: 3 purified from supernatant fraction of an Actinoallomurus A8 culture as in WO2013083338 (protein)
chain: MSRRVTGTILGGLILAMVPFLSTAANAAPQAAPASVSHPFHHSCATVKPGRASCNALVRSDIAQSAATLAHQAAAPSGLSPANLQSAYKLPSSTAGSGQTVAIVDAYDAPTAEADLNVYRSQFGLGACTTANGCFKKVDQNGGTSYPRKDGGWAQEISLDLDMVSAVCPNCKIVLVEAKTNSFANLGTAENTAASLANVISNSYGGSDASDASYGSYYNHPGKAITVSSGDAGYGVEYPASSHYVTAVGGTSLRTASTSRGWSETAWSGAGSGCSAYNTALSGQSGLTGCSRRAVADVSAVADPATGVAVYDSTAYQGQSGWMVFGGTSVAAPIIGGVYGLAANAASIDNNYPYAHTSSLFDVTSGSNGTCTTTKWCTAGTGWDGPTGLGTPNGTGAF
modifications: Actinoallomurus
Q: Which results are given for B1?
A: pH range of marked glutenase activity ([4]; native E40): 3-6; pH optimum of relative activity ([4]; native E40-containing Actinoallomurus A8 supernatant fraction, sucAAPF-AMC): 5; gliadin digestion [5]: completely digested

From patent publication US20220364069A1, “METHOD FOR THE PRODUCTION OF AN ENZYMATIC COMPOSITION COMPRISING A RECOMBINANT ENDOPEPTIDASE” (NEMYSIS LIMITED, priority 2019, published 2022)
